According to patent US20110318426A1, “ANTIBACTERIAL AGENT AND METHOD OF USING THE SAME” (OSAKA MUNICIPAL TECHNICAL RESEARCH INSTITUTE, priority 2009, published 2011):

Assays:
Type in all cases: cell-based
[1] = test system: Escherichia coli (IF03972); experiment: MIC determination test (growth by absorbance at 620 nm)
Procedure: (§1) Then, the suspensions were centrifuged (5800×g, 30 min), whereby supernatants were obtained.
(§2) In each of the obtained LB culture media containing the antibacterial agents, 1 μL of Escherichia coli (IF03972), Staphyloccocus aureus (IAM112082), Pseudomonas aeruginosa (IAM11514), or Bacillus subtilis (IFO3215), which are microorganisms generally used in the evaluation of antibacterial properties, was inoculated and cultured at 27° C. for 5 days. Microplates (96-well microplates, available Falcon) were used for the culturing of the microorganisms, and the growth of the microorganisms was checked by determination of absorbance at 620 nm with a microplate reader (Multisckan Ascent available from Labsystems). As the microorganisms to be inoculated, those prepared as follows were used: microorganisms of each type were cultured under agitation at 27° C. for 18 hours in a 5 mL of an ordinary bouillon culture medium (available from Eiken Chemical Co., Ltd.), then, 1 mL of the same was sampled and centrifuged at 10000 rpm for 5 minutes, sediments were suspended in 1 ml of a 0.85% saline solution, and the suspension was diluted to 100 times.
as §1
(§3) In each of the obtained LB culture media containing the antibacterial agents, 1 μL of Staphyloccocus aureus or Bacillus subtilis was inoculated and cultured at 27° C. for 5 days. Microplates (96-well microplates, available Falcon) were used for the culturing of the microorganisms, and the growth of the microorganisms was checked by determination of absorbance at 620 nm with a microplate reader (Multisckan Ascent available from Labsystems). As the microorganisms to be inoculated, those prepared as follows were used: microorganisms of each type were cultured under agitation at 27° C. for 18 hours in a 5 mL of an ordinary bouillon culture medium (available from Eiken Chemical Co., Ltd.), then, 1 mL of the same was sampled and centrifuged at 10000 rpm for 5 minutes, sediments were suspended in 1 ml of a 0.85% saline solution, and the suspension was further diluted to 100 times.
as §1

Escherichia coli = experiment: Bactericidal effect determination test (viable count, pour plate method); settings: for count of viable Escherichia coli: detection limit
Procedure: as §1
(§4) An Escherichia coli suspension, 20 μL, was added to each of the obtained LB culture media containing the antibacterial agents, whereby liquids for use in the bactericidal effect determination test were obtained. The liquids were sampled, 50 μL each, at the start, one hour later, three hours later, and 24 hours later, and each sample was added to 4.95 mL of a LP diluent. Each resultant was diluted at four steps, ten times each, and the count of viable bacteria in 1 mL of each diluted liquid was determined by the pour plate method. The Escherichia coli suspension used was a suspension obtained by culturing Escherichia coli under agitation at 27° C. for 18 hours in a 5 mL of an ordinary bouillon culture medium (available from Eiken Chemical Co., Ltd.), then, sampling 1 mL of the same and centrifuging the sample at 10000 rpm for 5 minutes, thereafter, suspending sediments in 1 ml of a 0.85% saline solution, and diluting the same to 10 times.
The suspension was agitated at 30° C. for 18 hours. Then, the suspension was centrifuged (5800×g, 30 min), whereby a supernatant, i.e., an LB culture medium containing an antibacterial agent, was prepared.
as §4, with “to” for “to each of”, “medium” for “media”, “agent,” for “agents,”, “liquid was” for “liquids were”, “start, 0.25 hour later,” for “start,”, “eight” for “24”

[2] = test system: Bacillus subtilis (IFO3215); experiment: MIC determination test (growth by absorbance at 620 nm)
Procedure: as §1, §2, §1, §3, §1

[3] = test system: Pseudomonas aeruginosa (IAM11514); experiment: as above
Procedure: as §1, §2, §1, §3, §1

[4] = test system: Staphyloccocus aureus (IAM112082); experiment: as above
Procedure: as §1, §2, §1, §3, §1

## O=[N+]([O-])[O-].[Ag+] [silver ions, silver nitrate]
[1]; 0.5 to 1% (W/V) of allophane contained
  MIC of silver ions: 0.5 µg/mL
[1]; 2% (W/V) of allophane contained
  MIC of silver ions: 0.125 µg/mL
[1]; 4% (W/V) of allophane contained
  MIC of silver ions: 0.0313 µg/mL
[1]; allophane not contained
  MIC of silver ions: about 1 mg/L
Escherichia coli; silver ions 1 mg/L, 1% (W/V) of allophane
  viable Escherichia coli observed: only few Escherichia coli were observed
Escherichia coli; silver ions 1 mg/L, 4% (W/V) of regenerated collagen powder
  count of viable Escherichia coli: < 1000 cfu/ml
Escherichia coli; silver ions 1 mg/L, 4% or more of allophane
  count of viable Escherichia coli: < 1000 cfu/ml
Escherichia coli; silver ions 1 mg/L, allophane 0% (W/V), time 0 h
  Count of viable bacteria: 10,800,000 cfu/mL
Escherichia coli; silver ions 1 mg/L, allophane 0% (W/V), time 1 h
  Count of viable bacteria: 14,900,000 cfu/mL
Escherichia coli; silver ions 1 mg/L, allophane 0% (W/V), time 3 h
  Count of viable bacteria: 3,930,000 cfu/mL
Escherichia coli; silver ions 1 mg/L, allophane 0% (W/V), time 24 h
  Count of viable bacteria: 95,000,000 cfu/mL
Escherichia coli; silver ions 1 mg/L, allophane 1% (W/V), time 0 h
  Count of viable bacteria: 10,800,000 cfu/mL
Escherichia coli; silver ions 1 mg/L, allophane 1% (W/V), time 1 h
  Count of viable bacteria: 52,000 cfu/mL
Escherichia coli; silver ions 1 mg/L, allophane 1% (W/V), time 3 h
  Count of viable bacteria: 3,500 cfu/mL
Escherichia coli; silver ions 1 mg/L, allophane 1% (W/V), time 24 h
  Count of viable bacteria: 2,600 cfu/mL
Escherichia coli; silver ions 1 mg/L, allophane 4% (W/V), time 0 h
  Count of viable bacteria: 10,800,000 cfu/mL
Escherichia coli; silver ions 1 mg/L, allophane 4% (W/V), time 1 h
  Count of viable bacteria: 1,100 cfu/mL
Escherichia coli; silver ions 1 mg/L, allophane 4% (W/V), time 3 h
  Count of viable bacteria: 1,000 or less cfu/mL
Escherichia coli; silver ions 1 mg/L, allophane 4% (W/V), time 24 h
  Count of viable bacteria: 1,000 or less cfu/mL
Escherichia coli; silver ions 1 mg/L, allophane 8% (W/V), time 0 h
  Count of viable bacteria: 10,800,000 cfu/mL
Escherichia coli; silver ions 1 mg/L, allophane 8% (W/V), time 1 h
  Count of viable bacteria: 1,000 or less cfu/mL
Escherichia coli; silver ions 1 mg/L, allophane 8% (W/V), time 3 h
  Count of viable bacteria: 1,000 or less cfu/mL
Escherichia coli; silver ions 1 mg/L, allophane 8% (W/V), time 24 h
  Count of viable bacteria: 1,000 or less cfu/mL
Escherichia coli; silver ions 1 mg/L, regenerated collagen powder 0% (W/V), time 1 h
  Count of viable bacteria: 6.2 × 10^7 cfu/mL
Escherichia coli; silver ions 1 mg/L, regenerated collagen powder 0% (W/V), time 3 h
  Count of viable bacteria: 6.7 × 10^7 cfu/mL
Escherichia coli; silver ions 1 mg/L, regenerated collagen powder 0% (W/V), time 8 h
  Count of viable bacteria: 2.4 × 10^7 cfu/mL
Escherichia coli; silver ions 1 mg/L, regenerated collagen powder 0% (W/V), time […]
  Count of viable bacteria: 8.1 × 10^7 cfu/mL
Escherichia coli; silver ions 1 mg/L, regenerated collagen powder 4% (W/V), time 1 h
  Count of viable bacteria: 9.9 × 10^6 cfu/mL
Escherichia coli; silver ions 1 mg/L, regenerated collagen powder 4% (W/V), time 3 h
  Count of viable bacteria: 1.4 × 10^5 cfu/mL
Escherichia coli; silver ions 1 mg/L, regenerated collagen powder 4% (W/V), time 8 h
  Count of viable bacteria: ≤ 1.0 × 10^3 cfu/mL
Escherichia coli; silver ions 1 mg/L, regenerated collagen powder 4% (W/V), time […]
  Count of viable bacteria: 4.7 × 10^4 cfu/mL
Escherichia coli; silver ions 5 mg/L, 1% (W/V) or more of allophane
  count of viable Escherichia coli: < 1000 cfu/ml
Escherichia coli; silver ions 5 mg/L, allophane 0% (W/V), last time point (24 h, time cell misprinted)
  Count of viable bacteria: 1000 or less cfu/mL
Escherichia coli; silver ions 5 mg/L, allophane 0% (W/V), time 0 h
  Count of viable bacteria: 10,800,000 cfu/mL
Escherichia coli; silver ions 5 mg/L, allophane 0% (W/V), time 1 h
  Count of viable bacteria: 6,000,000 cfu/mL
Escherichia coli; silver ions 5 mg/L, allophane 0% (W/V), time 3 h
  Count of viable bacteria: 29,000 cfu/mL
Escherichia coli; silver ions 5 mg/L, allophane 1% (W/V), last time point (24 h, time cell misprinted)
  Count of viable bacteria: 1,000 or less cfu/mL
Escherichia coli; silver ions 5 mg/L, allophane 1% (W/V), time 0 h
  Count of viable bacteria: 10,800,000 cfu/mL
Escherichia coli; silver ions 5 mg/L, allophane 1% (W/V), time 1 h
  Count of viable bacteria: 1,000 or less cfu/mL
Escherichia coli; silver ions 5 mg/L, allophane 1% (W/V), time 3 h
  Count of viable bacteria: 1,000 or less cfu/mL
Escherichia coli; silver ions 5 mg/L, allophane 4% (W/V), last time point (24 h, time cell misprinted)
  Count of viable bacteria: 1,000 or less cfu/mL
Escherichia coli; silver ions 5 mg/L, allophane 4% (W/V), time 0 h
  Count of viable bacteria: 10,800,000 cfu/mL
Escherichia coli; silver ions 5 mg/L, allophane 4% (W/V), time 1 h
  Count of viable bacteria: 1,000 or less cfu/mL
Escherichia coli; silver ions 5 mg/L, allophane 4% (W/V), time 3 h
  Count of viable bacteria: 1,000 or less cfu/mL
Escherichia coli; silver ions 5 mg/L, allophane 8% (W/V), last time point (24 h, time cell misprinted)
  Count of viable bacteria: 1,000 or less cfu/mL
Escherichia coli; silver ions 5 mg/L, allophane 8% (W/V), time 0 h
  Count of viable bacteria: 10,800,000 cfu/mL
Escherichia coli; silver ions 5 mg/L, allophane 8% (W/V), time 1 h
  Count of viable bacteria: 1,000 or less cfu/mL
Escherichia coli; silver ions 5 mg/L, allophane 8% (W/V), time 3 h
  Count of viable bacteria: 1,000 or less cfu/mL

## O.O.O.O.O.O.O.O=S(=O)([O-])[O-].[Zn+2] [zinc ions, zinc sulfate heptahydrate]
[2]
  antibacterial property when phosphorus-adsorbing material was mixed: improved
[1]
  antibacterial property when phosphorus-adsorbing material was mixed: did not improve
[3]
  antibacterial property when phosphorus-adsorbing material was mixed: did not improve
[4]
  MIC decrease relative to no allophane (fraction): about ⅛
  antibacterial property when phosphorus-adsorbing material was mixed: improved

## O.O.O.O.O.O=S(=O)([O-])[O-].[Cu+2] [copper ions, copper sulfate pentahydrate]
[2]
  antibacterial property when phosphorus-adsorbing material was mixed: improved
[1]
  antibacterial property when phosphorus-adsorbing material was mixed: did not improve
[3]
  antibacterial property when phosphorus-adsorbing material was mixed: did not improve
[4]
  antibacterial property when phosphorus-adsorbing material was mixed: improved
